Laboratory results from article PMC6175903, “Tuneable poration: host defense peptides as sequence probes for antimicrobial mechanisms” (Scientific Reports, 2018).
Where two headings read alike, the source gives them in different places. Marks after values point to notes of the source that are not given here. Bridge positions count the residues as written; N and C are the ends. Square brackets hold non-standard residues; d marks the D form. Ends that are not written are not given here. Peptide text beside a SMILES is read from it. * marks the point of attachment. X1 = CC[C@H](C)CCCCC(=O)*; Dab = NCC[C@H](N)C(=O)O

Assays:
[1] = system: S. typhimurium DA23307 phoP (D23N); format: cell-based; settings: S. typhimurium mutant DA23307 phoP (D23N); broth microdilution, 24 h at 37 °C, triplicate
Experimental: (§1) To explore these variations, the peptides were tested against cross-resistant strains of S. typhimurium, which were experimentally derived from the wild type bacterium subjected to increasing concentrations of pore-forming human HDPs[55]. Three genetic mutations were selected as candidate contributors to resistance and were reconstituted in the wild type genetic background, giving rise to the strains given in Table 2. One strain has the waaY gene mutated. This gene encodes for WaaY kinase that adds a phosphate group to the heptose II residue in the LPS inner core. The deactivation of the gene leads to decreased susceptibility to HDPs[56], as a result of reducing peptide binding to cell surfaces to the levels below those necessary to lyse the bacterium. Two other strains were mutated in pmrB and phoP genes, both of which are involved in masking phosphate groups (diminished charge) and influencing membrane fluidity (restricted motion)[58]. Finally, the fourth strain combined all three mutations (Table 2).
(§2) Minimum inhibitory concentrations (MICs) were determined by broth microdilution on P. aeruginosa (ATCC27853), E. coli (K12), S. aureus (ATCC6538), M. luteus (NCIMB13267), B. subtilis (ATCC6633), S. typhimurium (DA6192) and E. faecalis (OG1X) according to the Clinical and Laboratory Standards Institute and as recommended for antimicrobial peptide testing. Typically, 100 μL of 0.5–1 × 10^6 CFU per ml of each bacterium in Mueller Hinton media broth (Oxoid) were incubated in 96-well polystyrene microtiter plates with 100 μL of serial twofold dilutions of the peptides (from 100 to 0 μM) at 37 °C on a 3D orbital shaker. The absorbance was measured after peptide addition at 600 nm using a Victor 2 plate reader (Perkin-Elmer). MICs were defined as the lowest peptide concentration after 24 h at 37 °C. The mutant strains of S. typhimurium, named using the original nomenclature, were kindly provided by Dan Andersson[55].

[2] = system: S. typhimurium DA23175 pmrB (R13H); format: cell-based; settings: S. typhimurium mutant DA23175 pmrB (R13H); broth microdilution, 24 h at 37 °C, triplicate
Experimental: as §1, §2

human erythrocytes = settings: for LC50, median (50%) lethal concentration: human erythrocytes; for hemolysis: 250 µM
Experimental: Hemolysis was determined by incubating a 10% (vol/vol) suspension of human erythrocytes with peptides. Erythrocytes were rinsed four times in 10 mM phosphate buffer saline (PBS), pH 7.2, by repeated centrifugation and re-suspension (3 min at 3000 × g). Erythrocytes were incubated at room temperature for 1 h in either deionized water (fully haemolysed control), PBS, or with peptide in PBS. After centrifugation at 10,000 × g for 5 min, the supernatant was separated from the pellet, and the absorbance was measured at 550 nm. Absorbance of the suspension treated with deionized water defined complete hemolysis. […] All tests were done in triplicate.

S. typhimurium (DA6192) = assay: microbe, parasite or virus in culture; format: cell-based; settings: 24 h at 37 °C, triplicate, read-out: Minimum inhibitory concentrations
Experimental: as §2, with “Typically, 100 μL of 0.5–1 × 10^6 CFU per ml of each bacterium in Mueller Hinton media broth (Oxoid) were incubated in 96-well polystyrene microtiter plates with 100 μL of serial twofold dilutions of the peptides (from 100 to 0 μM) at 37 °C on a 3D orbital shaker.” left out

M. luteus (NCIMB13267) = assay: microbe, parasite or virus in culture; format: cell-based; settings: read-out: Minimum inhibitory concentrations
Experimental: as §2, with “Typically, 100 μL of 0.5–1 × 10^6 CFU per ml of each bacterium in Mueller Hinton media broth (Oxoid) were incubated in 96-well polystyrene microtiter plates with 100 μL of serial twofold dilutions of the peptides (from 100 to 0 μM) at 37 °C on a 3D orbital shaker.” left out

[3] = system: S. typhimurium DA23899 waaY, pmrB, phoP; assay: microbe, parasite or virus in culture; format: cell-based; settings: for Minimum inhibitory concentrations: S. typhimurium mutant DA23899 waaY, pmrB, phoP, broth microdilution, 24 h at 37 °C, triplicate; for MIC: Salmonella enterica, TYPHIMURIUM, 24 h, read-out: Minimum inhibitory concentrations
Experimental: as §1, §2

[4] = system: S. typhimurium DA22427 waaY (del bp17FS); assay: microbe, parasite or virus in culture; format: cell-based; settings: for Minimum inhibitory concentrations: S. typhimurium mutant DA22427 waaY (del bp17FS), broth microdilution, 24 h at 37 °C, triplicate; for MIC: Salmonella enterica, TYPHIMURIUM, 24 h, read-out: Minimum inhibitory concentrations
Experimental: as §1, §2

[5] = for comparison, naturally occurring HDPs; cited from earlier work
Experimental: The improved amphipathicity of CecM compared to CecB was evaluated by calculating the mean hydrophobic moment using HeliQuest[70]. The mean hydrophobic moment is a two-dimensional vector sum which provides a direct, quantitative measure of amphipathicity in regular repeats. The mean hydrophobic moment increases from CecB (0.296) to CecM (0.350). For comparison, values for PGLa and magainin, two naturally occurring HDPs, are 0.260 and 0.286, respectively. Percentage of secondary structure elements was calculated using STRIDE[73]. Oligomerisation simulations were performed over 500 ns fo ...

E. coli (K12) = assay: microbe, parasite or virus in culture; format: cell-based; settings: read-out: Minimum inhibitory concentrations
Experimental: as §2

[6] = system: P. aeruginosa (ATCC27853); assay: microbe, parasite or virus in culture; format: cell-based; settings: read-out: Minimum inhibitory concentrations
Experimental: as §2

S. aureus (ATCC6538) = assay: microbe, parasite or virus in culture; format: cell-based; settings: read-out: Minimum inhibitory concentrations
Experimental: as §2, with “Typically, 100 μL of 0.5–1 × 10^6 CFU per ml of each bacterium in Mueller Hinton media broth (Oxoid) were incubated in 96-well polystyrene microtiter plates with 100 μL of serial twofold dilutions of the peptides (from 100 to 0 μM) at 37 °C on a 3D orbital shaker.” left out

B. subtilis (ATCC6633) = assay: microbe, parasite or virus in culture; format: cell-based; settings: read-out: Minimum inhibitory concentrations
Experimental: as §2

[7] = 10% (vol/vol) suspension in PBS pH 7.2, 1 h at room temperature, absorbance 550 nm, triplicate (Table 1)
[8] = S. typhimurium (Table 1), broth microdilution (CLSI), Mueller Hinton broth, absorbance 600 nm
[9] = S. typhimurium DA6192 (wild type, Table 2), broth microdilution
[10] = M. luteus, broth microdilution (CLSI), Mueller Hinton broth, 24 h at 37 °C, absorbance 600 nm, triplicate
[11] = E. coli, Ala-d3 ChoM mutants (Table S6), broth microdilution
[12] = P. aeruginosa, Ala-d3 ChoM mutants (Table S6), broth microdilution
[13] = S. aureus, Ala-d3 ChoM mutants (Table S6), broth microdilution

| Molecule | Minimum inhibitory concentrations [1] | Minimum inhibitory concentrations [2] | LC50, median (50%) lethal concentration (human erythrocytes; [7]) | MIC (S. typhimurium (DA6192); [8]) | MIC (S. typhimurium (DA6192); [9]) | MIC (M. luteus (NCIMB13267); [10]) | Minimum inhibitory concentrations [3] | Minimum inhibitory concentrations [4] | other results |
| --- | --- | --- | --- | --- | --- | --- | --- | --- | --- |
| KWKVFKKIEKMGRNIRNGIVKAGPAIAVLGEAKAL-NH2 [CecB, Cecropin B] | <3 µM | <3 µM | >250^d µM | <3 µM | <3 µM | <1 µM | >6 µM | <3 µM |  |
| magainin |  |  |  |  |  |  |  |  | mean hydrophobic moment [5]: 0.286 |
| CC[C@H](C)CCCCC(=O)N[C@@H](CCN)C(=O)N[C@H](C(=O)N[C@@H](CCN)C(=O)N[C@H]1CCNC(=O)[C@H]([C@@H](C)O)NC(=O)[C@H](CCN)NC(=O)[C@H](CCN)NC(=O)[C@H](CC(C)C)NC(=O)[C@@H](Cc2ccccc2)NC(=O)[C@H](CCN)NC1=O)[C@@H](C)O [polymyxin B] (X1-[Dab]T[Dab][Dab][Dab][dF]L[Dab][Dab]T; lactam 4-C (inferred); N-terminus assumed) | <2 µM | <0.5 µM |  |  | <0.5 µM |  | <6 µM | <0.5 µM |  |
| KWKAFKKIEKMIRNIRNKIVK [V4A] |  |  |  |  |  |  |  |  | MIC (E. coli (K12); [11]): > 3 µM; MIC [6, 12]: > 3 µM; hemolysis (human erythrocytes): 1-2%; LC50, median (50%) lethal concentration (human erythrocytes; Ala-d3 ChoM mutants (Table S6)): > 250 µM; MIC (S. aureus (ATCC6538); [13]): > 12 µM |
| KWKVFKKIEKMGRNIRNGIVK-NH2 [ChoC] | >25 µM | >25 µM | >250^d µM | >12 µM | >12 µM | <1 µM | >25 µM | >12 µM |  |
| KWKVLKKKIKMLRNRINGLVKAGPALKVKLQALAL-NH2 [CecM] | <2 µM | <1 µM | >250^d µM | <1 µM | <1 µM | <1 µM | <2 µM | <1 µM |  |
| CN(C)[C@@H]1C(O)=C(C(N)=O)C(=O)[C@@]2(O)C(O)=C3C(=O)c4c(O)cccc4[C@@](C)(O)[C@H]3C[C@@H]12 [tetracycline] |  |  | UD (UD is for undetectable (>1000)) | <1 µM |  |  |  |  | MIC (E. coli (K12); Escherichia coli, 24 h): < 1.5 µM; MIC ([6]; Pseudomonas aeruginosa, ATCC27853, 24 h): < 6 µM; MIC (B. subtilis (ATCC6633); Bacillus subtilis, ATCC6633, 24 h): < 0.5 µM; MIC (S. typhimurium (DA6192); Salmonella enterica, S. typhimurium DA6192 (wild type, Table 2), broth microdilution): < 1 µM; MIC (S. aureus (ATCC6538); Staphylococcus aureus, ATCC6538, 24 h): < 0.5 µM; MIC (M. luteus (NCIMB13267); Micrococcus luteus, NCIMB13267, 24 h): < 0.5 µM; MIC [3]: < 1 µM; MIC [4]: < 1 µM |
| CCCCCCCCCC(=O)N[C@@H](Cc1c[nH]c2ccccc12)C(=O)N[C@H](CC(N)=O)C(=O)N[C@@H](CC(=O)O)C(=O)N[C@@H]1C(=O)NCC(=O)N[C@@H](CCCN)C(=O)N[C@@H](CC(=O)O)C(=O)N[C@H](C)C(=O)N[C@@H](CC(=O)O)C(=O)NCC(=O)N[C@H](CO)C(=O)N[C@@H]([C@H](C)CC(=O)O)C(=O)N[C@@H](CC(=O)c2ccccc2N)C(=O)O[C@@H]1C [daptomycin] |  |  | >250^c µM | >60 µM |  | <15 µM |  |  | MIC (B. subtilis (ATCC6633); B. subtilis, broth microdilution (CLSI), Mueller Hinton broth, serial twofold dilutions 100 to 0 μM, 24 h at 37 °C, absorbance 600 nm, triplicate): <7 µM; hemolysis (human erythrocytes; pH 7.2): 10% |
| PGLa |  |  |  |  |  |  |  |  | mean hydrophobic moment [5]: 0.260 |
| CO/N=C(\C(=O)N[C@@H]1C(=O)N2C(C(=O)O)=C(CSc3nc(=O)c(=O)[nH]n3C)CS[C@H]12)c1csc(N)n1 [ceftriaxone] |  |  | UD (UD is for undetectable (>1000)) |  | <1 µM |  |  |  | MIC (E. coli (K12); Escherichia coli, E. coli, broth microdilution (CLSI), Mueller Hinton broth, serial twofold dilutions 100 to 0 μM, 24 h at 37 °C, absorbance 600 nm, triplicate): < 6 µM; MIC ([6]; Pseudomonas aeruginosa, ATCC27853, P. aeruginosa, broth microdilution (CLSI), Mueller Hinton broth, serial twofold dilutions 100 to 0 μM, 24 h at 37 °C, absorbance 600 nm, triplicate): > 25 µM; MIC (B. subtilis (ATCC6633); Bacillus subtilis, ATCC6633, B. subtilis, broth microdilution (CLSI), Mueller Hinton broth, serial twofold dilutions 100 to 0 μM, 24 h at 37 °C, absorbance 600 nm, triplicate): < 1 µM; MIC (S. typhimurium (DA6192); Salmonella enterica, S. typhimurium (Table 1), broth microdilution (CLSI), Mueller Hinton broth, absorbance 600 nm): < 1 µM; MIC (S. aureus (ATCC6538); Staphylococcus aureus, ATCC6538, S. aureus, broth microdilution (CLSI), Mueller Hinton broth, serial twofold dilutions 100 to 0 μM, 24 h at 37 °C, absorbance 600 nm, triplicate): < 3 µM; MIC (M. luteus (NCIMB13267); Micrococcus luteus, NCIMB13267, M. luteus, broth microdilution (CLSI), Mueller Hinton broth, 24 h at 37 °C, absorbance 600 nm, triplicate): < 0.5 µM; MIC [3]: < 1 µM; MIC [4]: < 1 µM |
| KWKVFKKAEKMIRNIRNKIVK [I8A] |  |  |  |  |  |  |  |  | MIC (E. coli (K12); [11]): > 3 µM; MIC [6, 12]: > 6 µM; LC50, median (50%) lethal concentration (human erythrocytes; Ala-d3 ChoM mutants (Table S6)): > 250 µM; MIC (S. aureus (ATCC6538); [13]): > 25 µM |
